{"source": "patent US20250230193A1", "about": "“CYCLIC COMPOUND HAVING SELECTIVE KRAS INHIBITORY EFFECT ON HRAS AND NRAS” (CHUGAI SEIYAKU KABUSHIKI KAISHA, priority 2022, published 2025)", "key": {"[1]": {"biological_target": "GDP-bound NRAS wild-type protein (Homo sapiens, UniProt P01111)", "sequence (P01111 whole entry)": "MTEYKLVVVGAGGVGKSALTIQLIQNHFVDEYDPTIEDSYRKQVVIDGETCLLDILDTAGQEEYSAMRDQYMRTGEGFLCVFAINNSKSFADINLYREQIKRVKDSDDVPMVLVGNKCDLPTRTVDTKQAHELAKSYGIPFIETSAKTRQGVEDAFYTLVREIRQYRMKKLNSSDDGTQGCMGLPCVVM", "assay": "Binding to NRAS by surface plasmon resonance (SPR), Single Cycle Kinetics", "conditions": "for NRAS/KRAS (ratio of KD value with respect to NRAS to KD value with respect to KRAS): GDP-bound NRAS wild-type vs GDP-bound KRAS wild-type"}, "[2]": {"biological_target": "GDP-bound HRAS wild-type protein (Homo sapiens, UniProt P01112)", "sequence (P01112 whole entry)": "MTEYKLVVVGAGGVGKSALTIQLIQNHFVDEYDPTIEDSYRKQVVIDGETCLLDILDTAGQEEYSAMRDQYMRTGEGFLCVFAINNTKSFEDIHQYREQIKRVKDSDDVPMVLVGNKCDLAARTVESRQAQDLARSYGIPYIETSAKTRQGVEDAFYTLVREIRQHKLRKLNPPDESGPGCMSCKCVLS", "assay": "Binding to HRAS by surface plasmon resonance (SPR), Single Cycle Kinetics", "conditions": "for HRAS/KRAS (ratio of KD value with respect to HRAS to KD value with respect to KRAS): GDP-bound HRAS wild-type vs GDP-bound KRAS wild-type"}, "[3]": {"conditions": "KD ratio NRAS/KRAS, class symbols"}, "[4]": {"conditions": "KD ratio HRAS/KRAS, class symbols"}}, "note": "Where a SMILES comes first, the peptide text is derived from it. Bridges are numbered along the chain shown (N, C = ends). [ ]: non-standard residue; d: D form. The star is where a group is joined. hPhe(3-Cl-4-CF3) = N[C@@H](CCc1ccc(C(F)(F)F)c(Cl)c1)C(=O)O; NPrPhe(4-CF3) = CCCN[C@@H](Cc1ccc(C(F)(F)F)cc1)C(=O)O; NEtPhe(4-CF3) = CCN[C@@H](Cc1ccc(C(F)(F)F)cc1)C(=O)O; NMeGly(cPent) = CN[C@H](C(=O)O)C1CCCC1; Hyp = O=C(O)[C@@H]1C[C@@H](O)CN1; NMeD = CN[C@@H](CC(=O)O)C(=O)O; NMeL = CN[C@@H](CC(C)C)C(=O)O; Morpholide = C1CN(*)CCO1; NMeA = CN[C@@H](C)C(=O)O; Aze = O=C(O)[C@@H]1CCN1; Ac4c = NC1(C(=O)O)CCC1; Aib = CC(C)(N)C(=O)O; Sar = CNCC(=O)O", "data": [{"smiles": "CCC[C@H]1C(=O)N[C@@H]([C@@H](C)CC)C(=O)N(C)CC(=O)N(C)[C@H]2C/C=C\\CCN(C2=O)[C@@H](Cc2ccc(C(F)(F)F)cc2)C(=O)N(C)CC(=O)N[C@@H](CCc2ccc(C(F)(F)F)c(OC)c2)C(=O)N2C[C@@H](C)C[C@H]2C(=O)N(C)C2(CCC2)C(=O)N(C)[C@@H](C2CCCC2)C(=O)N(C)[C@H](C(=O)N(C)C)CC(=O)N1C", "note": "[PP2358]", "values": [{"measurement": "NRAS/KRAS (ratio of KD value with respect to NRAS to KD value with respect to KRAS)", "setting": "[1]; SPR", "value": "A (a compound having 10 or more and less than 20 is denoted as A)"}, {"measurement": "HRAS/KRAS (ratio of KD value with respect to HRAS to KD value with respect to KRAS)", "setting": "[2]; SPR", "value": "B (a compound having 3 or more and less than 10 is denoted as B)"}]}, {"smiles": "CCO[C@@H]1C[C@H]2C(=O)NC3(CCC3)C(=O)N(C)[C@@H](C3CCCC3)C(=O)N(C)[C@H](C(=O)N(C)C)CC(=O)N(C)[C@@H](CCC(=O)N(C)C)C(=O)N[C@@H]([C@@H](C)CC)C(=O)N(C)CC(=O)N(C)[C@H]3C/C=C\\CCN(C3=O)[C@@H](Cc3ccc(C(F)(F)F)cc3)C(=O)N(C)CC(=O)N[C@@H](CCc3cc(F)c(C(F)(F)F)c(F)c3)C(=O)N2C1", "note": "[PP1122]", "values": [{"measurement": "NRAS/KRAS (ratio of KD value with respect to NRAS to KD value with respect to KRAS)", "setting": "[1]; KD ratio, SPR", "value": "A (a compound having 10 or more and less than 20 is denoted as A)"}, {"measurement": "HRAS/KRAS (ratio of KD value with respect to HRAS to KD value with respect to KRAS)", "setting": "[2]; KD ratio, SPR", "value": "B (a compound having 3 or more and less than 10 is denoted as B)"}]}, {"smiles": "CCC[C@H]1C(=O)N[C@@H]([C@@H](C)CC)C(=O)N(C2CC2)CC(=O)N(C)[C@H]2C/C=C\\CCN(C2=O)[C@@H](Cc2ccc(C(F)(F)F)cc2)C(=O)N(C)CC(=O)N[C@@H](CCc2cc(F)c(C(F)(F)F)c(F)c2)C(=O)N2C[C@H](OCC)C[C@H]2C(=O)NC2(CC(C)(C)C2)C(=O)N(C)[C@@H](CC(C)(C)C)C(=O)N(C)[C@H](C(=O)N(C)C)CC(=O)N1C", "note": "[PP2742]", "values": [{"measurement": "NRAS/KRAS (ratio of KD value with respect to GDP-bound NRAS wild-type protein to KD value with respect to KRAS)", "setting": "[1]; [3]", "value": "AA (a compound having 20 or more is denoted as AA)"}, {"measurement": "HRAS/KRAS (ratio of KD value with respect to GDP-bound HRAS wild-type protein to KD value with respect to KRAS)", "setting": "[2]; [4]", "value": "A (a compound having 10 or more and less than 20 is denoted as A)"}]}, {"smiles": "CCC[C@H]1C(=O)N[C@@H]([C@@H](C)CC)C(=O)N2CCC[C@H]2C(=O)N(C)[C@H]2C/C=C\\CCN(C2=O)[C@@H](CC2CCC(F)(F)CC2)C(=O)N(C)CC(=O)N[C@@H](CCc2ccc(C(F)(F)F)c(OC)c2)C(=O)N2C[C@H](OCC)C[C@H]2C(=O)N(C)C2(CCC2)C(=O)N(C)[C@@H](C2CCCC2)C(=O)N(C)[C@H](C(=O)N(C)C)CC(=O)N1C", "note": "[PP2356]", "values": [{"measurement": "NRAS/KRAS (ratio of KD value with respect to NRAS to KD value with respect to KRAS)", "setting": "[1]; SPR", "value": "A (a compound having 10 or more and less than 20 is denoted as A)"}, {"measurement": "HRAS/KRAS (ratio of KD value with respect to HRAS to KD value with respect to KRAS)", "setting": "[2]; SPR", "value": "A (a compound having 10 or more and less than 20 is denoted as A)"}]}, {"smiles": "CC[C@H](C)[C@@H]1NC(=O)[C@H](CC(C)C)N(C)C(=O)C[C@@H](C(=O)N2CCOCC2)N(C)C(=O)[C@H](C2CCCC2)N(C)C(=O)C(C)(C)NC(=O)[C@@H]2CCCN2C(=O)[C@H](CCc2ccc(C(F)(F)F)c(Cl)c2)NC(=O)CN(C)C(=O)[C@H](Cc2ccc(C(F)(F)F)cc2)N(CC)C(=O)[C@@H]2CCN2C(=O)[C@H](C)N(C)C1=O", "note": "[PP0221] ([NMeL]I[NMeA][Aze][NEtPhe(4-CF3)][Sar][hPhe(3-Cl-4-CF3)]P[Aib][NMeGly(cPent)][NMeD]-Morpholide; lactam N-11)", "values": [{"measurement": "NRAS/KRAS (ratio of KD for GDP-bound NRAS wild-type to KD for KRAS)", "setting": "[1]; KD ratio NRAS/KRAS, SPR", "value": "C (A compound having a KD ratio of 0.1 or more and less than 3 is denoted as C)"}, {"measurement": "HRAS/KRAS (ratio of KD for GDP-bound HRAS wild-type to KD for KRAS)", "setting": "[2]; KD ratio HRAS/KRAS, SPR", "value": "C (A compound having a KD ratio of 0.1 or more and less than 3 is denoted as C)"}]}, {"smiles": "CCCN1C(=O)CN(C)C(=O)CN(C)C(=O)[C@H]([C@@H](C)CC)NC(=O)[C@H](CC(C)C)N(C)C(=O)C[C@@H](C(=O)N(C)C)N(C)C(=O)[C@H](C2CCCC2)N(C)C(=O)C2(CCC2)NC(=O)[C@@H]2C[C@@H](OCC)CN2C(=O)[C@H](CCc2ccc(C(F)(F)F)c(Cl)c2)NC(=O)CN(C)C(=O)[C@@H]1Cc1ccc(C(F)(F)F)cc1", "note": "[PP0416] ([NMeL]I[Sar][Sar][NPrPhe(4-CF3)][Sar][hPhe(3-Cl-4-CF3)][Hyp](Et)[Ac4c][NMeGly(cPent)][NMeD]-NMe2; lactam N-11)", "values": [{"measurement": "NRAS/KRAS (ratio of KD value with respect to GDP-bound NRAS wild-type protein to KD value with respect to KRAS)", "setting": "[1]; KD ratio NRAS/KRAS, SPR", "value": "B (a compound having 3 or more and less than 10 is denoted as B)"}, {"measurement": "HRAS/KRAS (ratio of KD value with respect to GDP-bound HRAS wild-type protein to KD value with respect to KRAS)", "setting": "[2]; KD ratio HRAS/KRAS, SPR", "value": "C (A compound having a KD ratio of 0.1 or more and less than 3 is denoted as C)"}]}, {"smiles": "CCO[C@@H]1C[C@H]2C(=O)NC3(CC(C)(C)C3)C(=O)N(C)[C@@H](C3CCCC3)C(=O)N(C)[C@H](C(=O)N(C)CC)CC(=O)N(C)[C@@H](CC(C)C)C(=O)N[C@@H]([C@@H](C)CC)C(=O)N(C)CC(=O)N(C)[C@H]3C/C=C\\CCN(C3=O)[C@@H](Cc3ccc(C(F)F)cc3)C(=O)N(C)CC(=O)N[C@@H](CCc3ccc(C(F)(F)F)c(OC)c3)C(=O)N2C1", "note": "[PP2828]", "values": [{"measurement": "NRAS/KRAS (ratio of KD value with respect to GDP-bound NRAS wild-type protein to KD value with respect to KRAS)", "setting": "[1]; [3]", "value": "A (a compound having 10 or more and less than 20 is denoted as A)"}, {"measurement": "HRAS/KRAS (ratio of KD value with respect to GDP-bound HRAS wild-type protein to KD value with respect to KRAS)", "setting": "[2]; [4]", "value": "A (a compound having 10 or more and less than 20 is denoted as A)"}]}, {"smiles": "CCO[C@@H]1C[C@H]2C(=O)NC3(CCC3)C(=O)N(C)[C@@H](C3CCCC3)C(=O)N(CC)[C@H](C(=O)N3CCOCC3)CC(=O)N(C)[C@@H](CO)C(=O)N[C@@H]([C@@H](C)CC)C(=O)N(C)CC(=O)N(C)[C@H]3CCCCCN(C3=O)[C@@H](Cc3ccc(C(F)(F)F)cc3)C(=O)N(C)CC(=O)N[C@@H](CCc3cc(F)c(C(F)(F)F)c(F)c3)C(=O)N2C1", "note": "[PP0945]", "values": [{"measurement": "NRAS/KRAS (ratio of KD value with respect to NRAS to KD value with respect to KRAS)", "setting": "[1]; KD ratio, SPR", "value": "B (a compound having 3 or more and less than 10 is denoted as B)"}, {"measurement": "HRAS/KRAS (ratio of KD value with respect to HRAS to KD value with respect to KRAS)", "setting": "[2]; KD ratio, SPR", "value": "A (a compound having 10 or more and less than 20 is denoted as A)"}]}]}
